Data published in ChEMBL document CHEMBL1124940, “N-[(arylmethoxy)phenyl] carboxylic acids, hydroxamic acids, tetrazoles, and sulfonyl carboxamides. Potent orally active leukotriene D4 antagonists of novel structure” (J Med Chem, 1990).

What was measured:
[1] = test system: Cavia porcellus; assay: Tested for the inhibition of LTD4-induced broncho constriction in Guinea pig; injected intraduodenally at a dose of 25 mg/kg; type: functional; details: route intraduodenal
[2] = test system: Cavia porcellus; assay: Inhibition of ovalbumin induced bronchoconstriction in Guinea pig, compound injected intragastrically, dose is 10 mg/kg; type: functional; details: po, route intragastric
[3] = test system: Cavia porcellus; assay: Inhibition of LTD4-induced bronchoconstriction in Guinea pig after intragastrical administration of dose of 25 mg/kg; type: functional; details: po, route intragastric
[4] = test system: Cavia porcellus; assay: Inhibition of ovalbumin induced bronchoconstriction in Guinea pig, compound injected intraduodenally at a dose of 25 mg/kg; type: functional; details: route intraduodenal
[5] = test system: Cavia porcellus; assay: Inhibition of LTD4-induced broncho constriction in Guinea pig after intraduodenal administration of a dose of 3 mg/kg; type: functional
[6] = test system: Cavia porcellus; assay: Inhibition of LTD4-induced broncho constriction in Guinea pig, compound injected intraduodenally at a dose of 25 mg/kg; type: functional; details: route intraduodenal
[7] = test system: Cavia porcellus; assay: Inhibition of ovalbumin induced bronchoconstriction in Guinea pig, compound injected intraduodenally at a dose of 10 mg/kg; type: functional; details: route intraduodenal
[8] = test system: Cavia porcellus; assay: Inhibition of LTD4-induced bronchoconstriction in Guinea pig after intragastrical administration of dose of 3 mg/kg; type: functional; details: po, route intragastric
[9] = test system: Cavia porcellus; assay: Inhibition of ovalbumin induced bronchoconstriction in Guinea pig, compound injected intragastrically, dose is 25 mg/kg; type: functional; details: po, route intragastric
[10] = test system: Cavia porcellus; assay: In vitro inhibition of LTD4-induced bronchoconstriction into isolated guinea pig trachea by injecting intragastrically; type: functional; details: po
[11] = test system: Cavia porcellus; assay: Tested for the inhibition of ovalbumin induced bronchoconstriction in Guinea pig, compound injected intragastrically at dose of 10 mg/kg.; type: functional; details: po, route intragastric
[12] = target: T1, Polyunsaturated fatty acid 5-lipoxygenase (Rattus norvegicus, UniProt P12527); assay: Concentration that produces 50% inhibition of A-23187-stimulated radiolabeled 5-HETE and TXB2 synthesis by PMN 5-lipoxygenase.
T1 sequence (P12527 whole entry): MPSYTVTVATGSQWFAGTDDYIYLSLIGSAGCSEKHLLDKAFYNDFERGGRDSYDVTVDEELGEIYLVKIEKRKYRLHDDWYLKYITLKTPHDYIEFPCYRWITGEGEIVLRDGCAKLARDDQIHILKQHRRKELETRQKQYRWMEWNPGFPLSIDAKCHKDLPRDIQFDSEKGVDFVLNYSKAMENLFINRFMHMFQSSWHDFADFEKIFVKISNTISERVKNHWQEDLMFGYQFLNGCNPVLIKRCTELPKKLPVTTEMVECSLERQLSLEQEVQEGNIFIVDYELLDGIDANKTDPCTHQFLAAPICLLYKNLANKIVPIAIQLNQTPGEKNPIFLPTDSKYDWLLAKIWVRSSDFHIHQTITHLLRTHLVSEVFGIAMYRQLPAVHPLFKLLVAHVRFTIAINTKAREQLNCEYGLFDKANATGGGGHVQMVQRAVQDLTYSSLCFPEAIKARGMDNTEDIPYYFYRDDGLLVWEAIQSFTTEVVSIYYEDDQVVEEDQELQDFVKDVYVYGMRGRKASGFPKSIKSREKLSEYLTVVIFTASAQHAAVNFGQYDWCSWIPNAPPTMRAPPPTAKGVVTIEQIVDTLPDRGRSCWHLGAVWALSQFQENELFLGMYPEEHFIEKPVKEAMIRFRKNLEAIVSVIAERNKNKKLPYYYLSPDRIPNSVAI

[13] = test system: Cavia porcellus; assay: Dissociation constant was determined in vitro after intraduodenal administration in isolated guinea pig trachea; type: ADME, organism-based; details: in vivo, other
[14] = test system: Cavia porcellus; assay: Tested for the inhibition of ovalbumin- induced bronchoconstriction in Guinea pig, compound injected intragastrically at dose of 25 mg/kg.; type: functional; details: po, route intragastric
[15] = test system: Cavia porcellus; assay: Tested for the inhibition of LTD4-induced bronchoconstriction in Guinea pig, compound injected intraduodenally, dose of 3 mg/kg; type: functional; details: route intraduodenal
[16] = test system: Cavia porcellus; assay: Inhibition of ovalbumin-induced broncho constriction in Guinea pig after intraduodenal administration of a dose of 25 mg/kg; type: functional
[17] = species: Cavia porcellus; assay: Dose of antagonist that produces 50% inhibition of ovalbumin-induced bronchoconstriction.; type: functional
[18] = test system: Cavia porcellus; assay: Inhibition of LTD4-induced broncho constriction in Guinea pig after intragastrical administration of a dose of 25 mg/kg; type: functional; details: po, route intragastric
[19] = test system: Rattus norvegicus; assay: Antiinflammatory effect was studied in a rat carrageenan paw edema (CE) assay at 50 mg/kg; type: functional
[20] = test system: Cavia porcellus; assay: Tested for the inhibition of LTD4-induced bronchoconstriction in Guinea pig, compound injected intragastrically at dose of 3 mg/kg.; type: functional; details: po, route intragastric
[21] = target: T2, Cyclooxygenase (Rattus norvegicus, UniProt P35355+Q63921); assay: Concentration that produces 50% inhibition of A-23187-stimulated radiolabeled 5-HETE and TXB2 synthesis by Prostaglandin G/H synthase; type: protein assay
T2 sequence (P35355 whole entry): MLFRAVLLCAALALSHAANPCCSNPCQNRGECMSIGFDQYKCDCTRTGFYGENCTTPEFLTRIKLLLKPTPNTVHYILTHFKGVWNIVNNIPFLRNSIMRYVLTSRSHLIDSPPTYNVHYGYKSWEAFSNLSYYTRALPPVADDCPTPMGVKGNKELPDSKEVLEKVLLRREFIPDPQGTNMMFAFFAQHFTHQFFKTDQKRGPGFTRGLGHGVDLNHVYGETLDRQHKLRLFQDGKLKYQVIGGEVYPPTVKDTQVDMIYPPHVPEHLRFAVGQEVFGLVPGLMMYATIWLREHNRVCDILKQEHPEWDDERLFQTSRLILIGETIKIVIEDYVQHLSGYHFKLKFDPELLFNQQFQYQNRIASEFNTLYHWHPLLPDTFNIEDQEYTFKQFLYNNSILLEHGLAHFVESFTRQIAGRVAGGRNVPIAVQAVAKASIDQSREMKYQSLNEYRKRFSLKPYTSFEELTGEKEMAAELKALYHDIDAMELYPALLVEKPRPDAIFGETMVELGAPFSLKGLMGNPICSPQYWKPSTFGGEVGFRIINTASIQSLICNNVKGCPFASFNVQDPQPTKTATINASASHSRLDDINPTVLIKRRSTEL
T2 sequence (Q63921 whole entry): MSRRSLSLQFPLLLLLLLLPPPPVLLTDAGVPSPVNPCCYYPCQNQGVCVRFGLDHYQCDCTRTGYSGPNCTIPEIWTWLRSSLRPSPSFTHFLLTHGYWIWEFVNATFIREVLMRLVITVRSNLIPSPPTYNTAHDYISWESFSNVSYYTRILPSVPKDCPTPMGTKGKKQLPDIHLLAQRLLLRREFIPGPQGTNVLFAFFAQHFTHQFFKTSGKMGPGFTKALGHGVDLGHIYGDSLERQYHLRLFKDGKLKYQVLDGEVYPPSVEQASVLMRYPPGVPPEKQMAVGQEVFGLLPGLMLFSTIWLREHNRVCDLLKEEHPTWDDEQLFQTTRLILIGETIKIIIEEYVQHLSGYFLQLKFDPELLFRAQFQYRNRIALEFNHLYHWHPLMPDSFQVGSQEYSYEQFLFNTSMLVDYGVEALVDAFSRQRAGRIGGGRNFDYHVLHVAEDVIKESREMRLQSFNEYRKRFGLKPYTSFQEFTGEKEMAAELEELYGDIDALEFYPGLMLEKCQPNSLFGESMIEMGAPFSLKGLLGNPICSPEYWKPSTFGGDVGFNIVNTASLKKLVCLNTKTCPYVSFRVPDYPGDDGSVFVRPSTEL

[22] = test system: Cavia porcellus; assay: Tested for the inhibition of LTD4-induced broncho constriction in Guinea pig, injected intraduodenally at a dose of 25 mg/kg; type: functional; details: route intraduodenal
[23] = test system: Cavia porcellus; assay: Tested for the inhibition of LTD4-induced bronchoconstriction in Guinea pig, injected intragastrically, dose is 3 mg/kg.; type: functional; details: po, route intragastric
[24] = test system: Cavia porcellus; assay: Inhibition of ovalbumin-induced broncho constriction in Guinea pig after intraduodenal administration of a dose of 10 mg/kg; type: functional
[25] = test system: Cavia porcellus; assay: Tested for the inhibition of LTD4-induced bronchoconstriction in Guinea pig, injected intraduodenally, dose is 10 mg/kg; type: functional; details: route intraduodenal
[26] = test system: Cavia porcellus; assay: Inhibition of LTD4-induced broncho constriction in Guinea pig after intraduodenal administration of a dose of 25 mg/kg; type: functional
[27] = test system: Cavia porcellus; assay: Tested for the inhibition of LTD4-induced bronchoconstriction in Guinea pig, compound injected intragastrically at dose of 3 mg/kg; type: functional; details: po, route intragastric
[28] = test system: Cavia porcellus; assay: Inhibition of LTD4-induced broncho constriction in Guinea pig after intragastrical administration of a dose of 3 mg/kg; type: functional; details: po, route intragastric
[29] = test system: Cavia porcellus; assay: In vitro inhibition of LTD4-induced bronchoconstriction into isolated guinea pig trachea by injecting intraduodenally; type: functional; details: intraduodenal
[30] = species: Cavia porcellus; assay: Dose of antagonist that produces 50% inhibition of ovalbumin-induced bronchoconstriction; type: functional
[31] = test system: Cavia porcellus; assay: Tested for the inhibition of ovalbumin- induced bronchoconstriction in Guinea pig, injected intragastrically, dose of 10 mg/kg; type: functional; details: po, route intragastric
[32] = test system: Rattus norvegicus; assay: Antiinflammatory effect was studied in a rat carrageenan paw edema (CE) assay at a dose of 50 mg/kg; type: functional
[33] = target: T1, Polyunsaturated fatty acid 5-lipoxygenase; assay: Concentration that produces 50% inhibition of A-23187-stimulated radiolabeled 5-HETE and TXB2 synthesis by PMN 5-lipoxygenase; type: functional
[34] = test system: Cavia porcellus; assay: Tested for the inhibition of LTD4-induced bronchoconstriction in Guinea pig, injected intraduodenally, dose is 3 mg/kg; type: functional; details: route intraduodenal
[35] = test system: Cavia porcellus; assay: Tested for the inhibition of ovalbumin- induced bronchoconstriction in Guinea pig, injected intragastrically, dose of 25 mg/kg; type: functional; details: po, route intragastric
[36] = test system: Cavia porcellus; assay: In vitro inhibition of ovalbumin-induced bronchoconstriction in isolated guinea pig trachea by injecting intraduodenally; type: functional; details: intraduodenal
[37] = test system: Cavia porcellus; assay: In vitro inhibition of LTD4-induced bronchoconstriction after intragastrical administration 120 min before agonist into isolated guinea pig trachea; type: functional; details: po
[38] = test system: Cavia porcellus; assay: In vitro LTD4-induced bronchoconstriction in isolated guinea pig trachea by injecting intraduodenally; type: functional; details: intraduodenal
[39] = test system: Cavia porcellus; assay: In vitro inhibition of ovalbumin-induced bronchoconstriction after intragastrical administration 120 min before agonist into isolated guinea pig trachea; type: functional; details: po
[40] = test system: Cavia porcellus; assay: -log dissociation constant was determined In vitro in isolated guinea pig trachea after intraduodenal administration (before 10 min); type: ADME, organism-based; details: in vivo, other

With `Cc1ccc(S(=O)(=O)NC(=O)c2ccc(OCc3ccc4ccccc4n3)cc2)cc1` the inhibition in vivo at 25 mg/kg [1] was < -9%.

With `CONC(=O)c1cccc(OCc2ccc3ccccc3n2)c1` the inhibition in vivo at 10 mg/kg [2] was 9%, the inhibition in vivo at 25 mg/kg [3] was < 72% and the inhibition in vivo at 25 mg/kg [4] was < 77%. The inhibition in vivo at 3 mg/kg [5] was 64%, the inhibition in vivo at 25 mg/kg [6] was 93% and the inhibition in vivo at 10 mg/kg [7] was 84%. The inhibition in vivo at 3 mg/kg [8] was -6% and the inhibition in vivo at 25 mg/kg [9] was < -2%.

`Cc1ccc(S(=O)(=O)NC(=O)c2cccc(OCc3ccc4ccccc4n3)c2)cc1` gave an ED50 [10] of 0.4 mg/kg, an inhibition in vivo at 10 mg/kg [11] of 4% and an IC50 [12] of 6.2 µM. The pKb [13] was 7.78, the inhibition in vivo at 25 mg/kg [14] was < 57% and the inhibition in vivo at 3 mg/kg [15] was 83%. For the same compound, the inhibition in vivo at 25 mg/kg [16] was < 80%, the ED50 [17] was 2.02 mg/kg and the inhibition in vivo at 25 mg/kg [18] was 91%. The inhibition in vivo at 50 mg/kg [19] was < 69%, the inhibition in vivo at 3 mg/kg [20] was 86% and the IC50 [21] was 13.4 µM.

For `Cc1ccc(S(=O)(=O)NC(=O)c2cccc(OCc3ncc4ccccc4n3)c2)cc1`, the inhibition in vivo at 25 mg/kg [18] was 99%, the inhibition in vivo at 25 mg/kg [22] was 85% and the inhibition in vivo at 3 mg/kg [23] was 60%. The inhibition in vivo at 10 mg/kg [24] was 66% and the inhibition in vivo at 10 mg/kg [25] was 50%.

In the case of `O=C(Cc1cccc(OCc2ccc3ccccc3n2)c1)NOCc1ccccc1`, the inhibition in vivo at 25 mg/kg [18] is reported as < 67%, the inhibition in vivo at 25 mg/kg [26] is reported as < 26% and the inhibition in vivo at 3 mg/kg [27] is reported as 18%.

For `c1cc(Cc2nnn[nH]2)cc(OCc2ccc3ccccc3n2)c1`, the ED50 [10] was 3 mg/kg, the inhibition in vivo at 3 mg/kg [28] was 50% and the ED50 [29] was 3 mg/kg. For the same compound, the ED50 [30] was 6.7 mg/kg, the inhibition in vivo at 10 mg/kg [31] was 49% and the inhibition in vivo at 50 mg/kg [32] was 30%. For the same compound, the inhibition in vivo at 25 mg/kg [18] was < 99%, the inhibition in vivo at 25 mg/kg [22] was < 94% and the IC50 [33] was 3.9 µM. The inhibition in vivo at 3 mg/kg [34] was 53% and the inhibition in vivo at 25 mg/kg [35] was < 31%.

`CCCc1c(OCCCCc2nnn[nH]2)ccc(C(C)=O)c1O` [TOMELUKAST] showed an ED50 [36] of 19 mg/kg, an ED50 [37] of 32 mg/kg and an ED50 [38] of 6 mg/kg. The ED50 [39] was 38 mg/kg and the pKb [40] was 6.55.
